Tests used:
human NUCB1 = target: T1, human NUCB1 (Homo sapiens, UniProt Q02818); experiment: FluoPol assay / high throughput screen with Fl-AEA and recombinant NUCB1; format: binding; conditions: competitor lipids, recombinant NUCB1
T1 construct: made in house; host or cells: Escherichia coli BL21(DE3)
T1 sequence (Q02818 27-461): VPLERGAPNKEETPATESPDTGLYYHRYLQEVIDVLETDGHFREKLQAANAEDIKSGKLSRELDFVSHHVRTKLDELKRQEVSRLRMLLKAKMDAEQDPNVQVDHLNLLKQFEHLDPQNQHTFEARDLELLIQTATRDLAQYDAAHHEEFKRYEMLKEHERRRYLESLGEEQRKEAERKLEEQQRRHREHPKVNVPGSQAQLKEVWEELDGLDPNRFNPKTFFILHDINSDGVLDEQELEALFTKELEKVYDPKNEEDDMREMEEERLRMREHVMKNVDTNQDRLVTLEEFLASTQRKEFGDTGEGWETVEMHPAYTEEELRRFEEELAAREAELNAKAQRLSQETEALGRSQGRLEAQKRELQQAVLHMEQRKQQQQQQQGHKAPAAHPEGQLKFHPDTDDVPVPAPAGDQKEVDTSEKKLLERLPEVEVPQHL
Procedure: FluoPol conditions were optimized by screening various concentrations of Fl-AEA, hNUCB1, CaCl2 and Pluronic F-127 against positive and negative controls. Arachidonic acid (20 μM final) was used as a positive control, and DMSO as a negative. Additionally, protein-free controls were used to normalize for background signal. […] The Z′-factor for these conditions was determined to be 0.54, indicating a high signal to noise assay.
A 10 μL solution of hNUCB1 (1 μM), Fl-AEA (0.5 μM), CaCl2 (20 μM), and Pluronic F-127 (0.01%) was added to a Greiner 384-well plate. Additionally, in some wells protein was omitted to serve as a blank control for background signal. To the protein containing wells 16,000 compounds (50 nL in DMSO, 2 mM) from the Maybridge Hitfinder library were added by a pin-tool robot. Additionally, on each plate to some wells arachidonic acid (20 μM final) or DMSO were added as positive and negative controls to allow normalization between plates. The plates were allowed to incubate for 5 minutes at room temperature, then fluorescence polarization was measured by measuring fluorescence intensity through polarized 595 nm filters. Hits were selected based on maximal probe competition.

[1] = target: AEA-DA lipid probe targets in A549 cells (Homo sapiens, UniProt O95470); experiment: In situ competitive SILAC profiling with AEA-DA probe in A549 cells; conditions: competitor 25 μM
Sequence of AEA-DA lipid probe targets in A549 cells (Homo sapiens, UniProt O95470) (O95470 whole entry): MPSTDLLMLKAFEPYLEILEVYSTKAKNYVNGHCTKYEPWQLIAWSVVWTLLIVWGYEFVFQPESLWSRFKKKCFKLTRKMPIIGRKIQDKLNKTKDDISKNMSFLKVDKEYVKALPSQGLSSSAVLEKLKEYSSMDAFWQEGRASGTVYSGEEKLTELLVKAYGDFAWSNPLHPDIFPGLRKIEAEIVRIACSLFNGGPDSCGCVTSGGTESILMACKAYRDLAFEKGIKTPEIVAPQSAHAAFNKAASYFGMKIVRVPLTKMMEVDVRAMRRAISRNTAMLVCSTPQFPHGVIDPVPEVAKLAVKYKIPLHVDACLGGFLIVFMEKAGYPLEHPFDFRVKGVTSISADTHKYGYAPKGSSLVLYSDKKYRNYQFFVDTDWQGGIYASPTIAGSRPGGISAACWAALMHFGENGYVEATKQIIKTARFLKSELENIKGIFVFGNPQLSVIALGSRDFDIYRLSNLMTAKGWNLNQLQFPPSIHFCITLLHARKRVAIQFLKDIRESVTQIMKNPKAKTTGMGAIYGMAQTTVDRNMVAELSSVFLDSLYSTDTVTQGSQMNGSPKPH

[2] = target: AEA-DA lipid probe targets in A549 cells (Homo sapiens, UniProt P45880); experiment: as above; conditions: competitor 25 μM
Sequence of AEA-DA lipid probe targets in A549 cells (Homo sapiens, UniProt P45880) (P45880 whole entry): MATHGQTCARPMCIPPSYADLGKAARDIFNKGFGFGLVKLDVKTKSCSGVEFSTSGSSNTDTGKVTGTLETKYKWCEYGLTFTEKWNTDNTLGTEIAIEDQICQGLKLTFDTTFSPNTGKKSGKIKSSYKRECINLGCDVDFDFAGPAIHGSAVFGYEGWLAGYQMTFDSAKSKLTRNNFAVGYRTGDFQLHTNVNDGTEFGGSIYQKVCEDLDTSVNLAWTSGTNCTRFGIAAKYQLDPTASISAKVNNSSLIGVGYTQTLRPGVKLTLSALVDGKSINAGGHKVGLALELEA

[3] = target: AEA-DA lipid probe targets in A549 cells (Homo sapiens, UniProt P30519); experiment: as above; conditions: competitor 25 μM
Sequence of AEA-DA lipid probe targets in A549 cells (Homo sapiens, UniProt P30519) (P30519 whole entry): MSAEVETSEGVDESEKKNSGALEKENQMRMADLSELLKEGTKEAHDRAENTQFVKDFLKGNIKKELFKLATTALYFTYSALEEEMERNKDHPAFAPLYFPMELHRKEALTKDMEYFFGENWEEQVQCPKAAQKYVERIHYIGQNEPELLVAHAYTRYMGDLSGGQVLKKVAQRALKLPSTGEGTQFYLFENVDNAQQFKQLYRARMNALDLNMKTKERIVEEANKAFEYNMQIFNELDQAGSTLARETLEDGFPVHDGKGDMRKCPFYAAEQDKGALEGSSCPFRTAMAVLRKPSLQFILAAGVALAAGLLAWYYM

[4] = tested on: AEA-DA lipid probe targets in A549 cells; experiment: as above; conditions: competitor 25 μM
[5] = target: AEA-DA lipid probe targets in A549 cells (Homo sapiens, UniProt Q14534); experiment: as above; conditions: competitor 25 μM
Sequence of AEA-DA lipid probe targets in A549 cells (Homo sapiens, UniProt Q14534) (Q14534 whole entry): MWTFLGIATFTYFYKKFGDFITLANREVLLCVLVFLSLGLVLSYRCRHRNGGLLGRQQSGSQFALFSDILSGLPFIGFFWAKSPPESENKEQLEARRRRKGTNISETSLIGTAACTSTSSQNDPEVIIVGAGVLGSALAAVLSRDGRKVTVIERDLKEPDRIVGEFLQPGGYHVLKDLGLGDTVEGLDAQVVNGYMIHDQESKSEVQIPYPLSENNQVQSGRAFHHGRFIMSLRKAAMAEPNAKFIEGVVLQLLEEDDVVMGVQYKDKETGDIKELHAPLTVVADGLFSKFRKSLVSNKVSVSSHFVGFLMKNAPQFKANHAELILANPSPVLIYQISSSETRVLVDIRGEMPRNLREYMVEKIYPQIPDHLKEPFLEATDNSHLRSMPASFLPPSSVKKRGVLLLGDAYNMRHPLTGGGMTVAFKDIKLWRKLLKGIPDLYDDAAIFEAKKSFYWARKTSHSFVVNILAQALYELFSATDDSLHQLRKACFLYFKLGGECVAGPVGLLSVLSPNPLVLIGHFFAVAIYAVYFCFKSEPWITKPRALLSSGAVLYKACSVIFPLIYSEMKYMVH

[6] = target: AEA-DA lipid probe targets in A549 cells (Homo sapiens, UniProt Q86XL3); experiment: as above; conditions: competitor 25 μM
Sequence of AEA-DA lipid probe targets in A549 cells (Homo sapiens, UniProt Q86XL3) (Q86XL3 whole entry): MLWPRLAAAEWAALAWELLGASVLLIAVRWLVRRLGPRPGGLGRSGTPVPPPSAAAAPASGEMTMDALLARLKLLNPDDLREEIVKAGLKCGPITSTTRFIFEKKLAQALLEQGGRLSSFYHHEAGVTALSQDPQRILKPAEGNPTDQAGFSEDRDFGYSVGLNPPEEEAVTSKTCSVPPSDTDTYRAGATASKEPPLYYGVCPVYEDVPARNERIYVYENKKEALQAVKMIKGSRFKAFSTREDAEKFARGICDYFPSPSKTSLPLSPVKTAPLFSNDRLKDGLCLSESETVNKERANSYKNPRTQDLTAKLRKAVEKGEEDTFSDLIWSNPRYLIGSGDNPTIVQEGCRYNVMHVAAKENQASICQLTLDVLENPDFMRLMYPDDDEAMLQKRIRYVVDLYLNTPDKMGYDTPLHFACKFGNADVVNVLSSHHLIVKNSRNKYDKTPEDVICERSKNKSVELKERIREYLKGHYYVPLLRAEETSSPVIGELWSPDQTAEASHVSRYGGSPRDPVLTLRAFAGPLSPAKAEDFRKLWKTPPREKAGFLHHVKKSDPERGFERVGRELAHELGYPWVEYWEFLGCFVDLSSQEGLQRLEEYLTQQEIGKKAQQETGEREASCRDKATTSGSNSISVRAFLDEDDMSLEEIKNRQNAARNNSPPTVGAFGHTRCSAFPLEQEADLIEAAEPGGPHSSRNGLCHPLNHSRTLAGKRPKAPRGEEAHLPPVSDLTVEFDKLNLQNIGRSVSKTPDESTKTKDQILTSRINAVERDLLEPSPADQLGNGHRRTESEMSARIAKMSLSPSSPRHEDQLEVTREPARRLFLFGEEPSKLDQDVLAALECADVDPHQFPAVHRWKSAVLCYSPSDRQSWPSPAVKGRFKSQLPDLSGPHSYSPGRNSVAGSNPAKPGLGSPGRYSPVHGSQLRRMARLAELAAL

[7] = target: AEA-DA lipid probe targets in A549 cells (Homo sapiens, UniProt P67812); experiment: as above; conditions: competitor 25 μM
Sequence of AEA-DA lipid probe targets in A549 cells (Homo sapiens, UniProt P67812) (P67812 whole entry): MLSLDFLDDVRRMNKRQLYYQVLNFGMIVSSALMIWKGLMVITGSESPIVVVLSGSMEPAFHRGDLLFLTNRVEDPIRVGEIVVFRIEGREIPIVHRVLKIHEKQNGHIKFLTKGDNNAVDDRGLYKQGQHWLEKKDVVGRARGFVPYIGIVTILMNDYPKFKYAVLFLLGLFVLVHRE

[8] = target: AEA-DA lipid probe targets in A549 cells (Homo sapiens, UniProt P21796); experiment: as above; conditions: competitor 25 μM
Sequence of AEA-DA lipid probe targets in A549 cells (Homo sapiens, UniProt P21796) (P21796 whole entry): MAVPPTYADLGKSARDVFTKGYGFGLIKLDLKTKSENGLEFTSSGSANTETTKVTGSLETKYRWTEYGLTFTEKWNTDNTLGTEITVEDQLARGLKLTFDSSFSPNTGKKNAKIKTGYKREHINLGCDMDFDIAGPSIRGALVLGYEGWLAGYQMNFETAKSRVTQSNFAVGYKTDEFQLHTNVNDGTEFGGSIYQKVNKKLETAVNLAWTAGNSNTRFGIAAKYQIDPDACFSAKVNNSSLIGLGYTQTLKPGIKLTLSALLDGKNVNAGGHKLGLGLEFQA

[9] = target: AEA-DA lipid probe targets in A549 cells (Homo sapiens, UniProt Q53GQ0); experiment: as above; conditions: competitor 25 μM
Sequence of AEA-DA lipid probe targets in A549 cells (Homo sapiens, UniProt Q53GQ0) (Q53GQ0 whole entry): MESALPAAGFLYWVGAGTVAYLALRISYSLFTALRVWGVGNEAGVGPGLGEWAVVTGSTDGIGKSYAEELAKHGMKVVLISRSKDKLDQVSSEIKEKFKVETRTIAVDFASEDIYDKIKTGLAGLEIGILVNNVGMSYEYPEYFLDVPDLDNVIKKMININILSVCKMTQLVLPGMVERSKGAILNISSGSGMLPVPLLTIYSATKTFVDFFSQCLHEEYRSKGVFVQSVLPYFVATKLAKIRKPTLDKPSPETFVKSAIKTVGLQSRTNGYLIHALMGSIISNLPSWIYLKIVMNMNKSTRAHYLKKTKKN

[10] = target: T2, A-DA lipid probe targets in A549 cells (Homo sapiens, UniProt Q9UH99); experiment: In situ competitive SILAC profiling with A-DA probe in (PMA-stimulated) A549 cells; conditions: protein SUN2 (Q9UH99), A549 cells
T2 sequence (Q9UH99 1-717): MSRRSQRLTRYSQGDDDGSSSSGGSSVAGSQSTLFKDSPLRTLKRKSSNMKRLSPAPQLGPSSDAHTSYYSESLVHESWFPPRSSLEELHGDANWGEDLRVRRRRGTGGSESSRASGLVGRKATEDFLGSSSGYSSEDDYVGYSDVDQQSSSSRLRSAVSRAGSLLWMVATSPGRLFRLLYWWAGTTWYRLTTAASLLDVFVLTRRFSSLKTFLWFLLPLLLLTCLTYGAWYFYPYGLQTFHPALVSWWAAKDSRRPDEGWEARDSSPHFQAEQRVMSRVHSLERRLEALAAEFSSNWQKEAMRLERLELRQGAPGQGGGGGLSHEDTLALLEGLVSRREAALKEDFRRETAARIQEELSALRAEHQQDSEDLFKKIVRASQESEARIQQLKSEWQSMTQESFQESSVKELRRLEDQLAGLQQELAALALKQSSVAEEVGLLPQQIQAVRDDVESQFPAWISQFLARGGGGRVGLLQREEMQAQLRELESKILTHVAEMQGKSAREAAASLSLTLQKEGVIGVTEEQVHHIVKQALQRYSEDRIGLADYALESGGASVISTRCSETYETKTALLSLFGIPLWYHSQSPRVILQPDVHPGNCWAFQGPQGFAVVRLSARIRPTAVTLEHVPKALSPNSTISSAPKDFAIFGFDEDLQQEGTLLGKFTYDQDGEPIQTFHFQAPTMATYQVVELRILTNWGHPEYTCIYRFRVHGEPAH

[11] = target: A-DA lipid probe targets in A549 cells (Homo sapiens, UniProt P48449); experiment: as above; conditions: A549 cells, A-DA 5 μM, drug 5 μM; only two off-targets (TMEM97 and EBP)
Sequence of A-DA lipid probe targets in A549 cells (Homo sapiens, UniProt P48449) (P48449 whole entry): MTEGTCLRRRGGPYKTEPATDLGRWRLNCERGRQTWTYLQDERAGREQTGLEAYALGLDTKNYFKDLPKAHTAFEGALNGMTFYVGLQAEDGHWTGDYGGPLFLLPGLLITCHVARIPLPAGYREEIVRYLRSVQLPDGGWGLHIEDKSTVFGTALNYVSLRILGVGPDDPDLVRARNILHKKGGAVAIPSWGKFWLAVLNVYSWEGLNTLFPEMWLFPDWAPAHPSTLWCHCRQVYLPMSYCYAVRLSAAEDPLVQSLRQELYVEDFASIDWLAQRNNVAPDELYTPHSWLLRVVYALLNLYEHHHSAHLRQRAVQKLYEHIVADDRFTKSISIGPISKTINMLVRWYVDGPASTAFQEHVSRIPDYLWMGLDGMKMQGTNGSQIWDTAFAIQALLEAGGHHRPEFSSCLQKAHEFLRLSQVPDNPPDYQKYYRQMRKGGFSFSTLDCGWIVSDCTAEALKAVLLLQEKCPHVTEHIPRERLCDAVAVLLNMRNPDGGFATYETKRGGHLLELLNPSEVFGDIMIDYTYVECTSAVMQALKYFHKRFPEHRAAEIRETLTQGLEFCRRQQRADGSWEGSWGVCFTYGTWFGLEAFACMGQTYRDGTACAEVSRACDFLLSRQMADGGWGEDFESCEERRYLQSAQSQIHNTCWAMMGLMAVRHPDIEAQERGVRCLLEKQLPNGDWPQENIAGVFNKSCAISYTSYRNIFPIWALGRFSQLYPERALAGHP

Compound: CCCCC/C=C\C/C=C\C/C=C\C/C=C\CCCC(=O)NCCO [AEA, anandamide, reference compound]
- suppression of the NUCB1-FluoPol signal (blockade of Fl-AEA binding) (human NUCB1): Concentration-dependent suppression

Compound: O=C(/C=C/c1cccnc1)NCCCCC1CCN(C(=O)c2ccccc2)CC1 [FK-866, reference compound]
- SILAC ratio, SGPL1 (O95470) [1]: 0.8
- SILAC ratio, VDAC2 (P45880) [2]: 0.9
- SILAC ratio, HMOX2 (P30519) [3]: 0.7
- SILAC ratio, PGRMC2 (Q80UU9) [4]: 0.7
- SILAC ratio, PSAP (P07602) [4]: 0.7
- SILAC ratio, TOMM22 (Q9CPQ3) [4]: 0.6
- SILAC ratio, UGT1A7 (Q9HAW7) [4]: 1.5
- SILAC ratio, SQLE (Q14534) [5]: 0.7
- SILAC ratio, ANKLE2 (Q86XL3) [6]: 0.6
- SILAC ratio, SEC11A (P67812) [7]: 0.6
- SILAC ratio, VDAC1 (P21796) [8]: 0.8
- SILAC ratio, HSD17B12 (Q53GQ0) [9]: 0.8

Compound: C=CCN(C)CCCCCCOc1ccc(C(=O)c2ccc(Br)cc2)c(F)c1 [Ro 48-8071, reference compound]
- SILAC ratio, A-DA competition ([10]; competitor 5.0 μM): 1.3
- SILAC ratio, A-DA competition ([10]; competitor 50 μM): 1.3
- competition of probe labeling of LSS [11]: fully competed
